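Growth conditions: 96-well plates. Treatment: test compound, 48 hours, 5 concentrations. Analysis: linear interpolation between bracketing concentrations; unreached endpoints set to highest concentration. The concentration for 50% growth inhibition is given as GI50.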 The source made the active and inactive calls. Rule as the data show it: active = GI50 up to about 1.1 µM and inactive = higher.
Columns and labels:
Test in all cases: inhibition of tumour cell growth, NCI panel, 48 h
RPMI-8226 = tested on: RPMI-8226
CAKI-1 = tested on: CAKI-1
ACHN = tested on: ACHN
A549 = tested on: A549
BT-549 = tested on: BT-549
HL-60 = tested on: HL-60
NCI-H522 = tested on: NCI-H522
CCRF-CEM = tested on: CCRF-CEM
NCI-H23 = tested on: NCI-H23
UO-31 = tested on: UO-31
DU-145 = tested on: DU-145
LOX IMVI = tested on: LOX IMVI
786-0 = tested on: 786-0
SN12C = tested on: SN12C
MCF7 = tested on: MCF7
UACC-257 = tested on: UACC-257
HCC 2998 = tested on: HCC 2998
SNB-75 = tested on: SNB-75
Malme-3M = tested on: Malme-3M
HCT-116 = tested on: HCT-116
HOP-62 = tested on: HOP-62
NCI/ADR-RES = tested on: NCI/ADR-RES
MDA-MB-435 = tested on: MDA-MB-435
KM12 = tested on: KM12
MDA-MB-231 = tested on: MDA-MB-231
IGROV-1 = tested on: IGROV-1
SR = tested on: SR
HCT-15 = tested on: HCT-15
OVCAR-8 = tested on: OVCAR-8
T47D = tested on: T47D
COLO 205 = tested on: COLO 205
NCI-H226 = tested on: NCI-H226
SK-MEL-28 = tested on: SK-MEL-28
OVCAR-4 = tested on: OVCAR-4
MOLT-4 = tested on: MOLT-4
K562 = tested on: K562
SK-MEL-2 = tested on: SK-MEL-2
EKVX = tested on: EKVX
UACC-62 = tested on: UACC-62
SF-268 = tested on: SF-268
SW-620 = tested on: SW-620
HOP-92 = tested on: HOP-92
A498 = tested on: A498
SNB-19 = tested on: SNB-19
HT-29 = tested on: HT-29
NCI-H460 = tested on: NCI-H460
OVCAR-5 = tested on: OVCAR-5
TK-10 = tested on: TK-10
SF-539 = tested on: SF-539
PC-3 = tested on: PC-3
MDA-N = tested on: MDA-N
M14 = tested on: M14
U-251 = tested on: U-251
RXF 393 = tested on: RXF 393
SK-OV-3 = tested on: SK-OV-3
SF-295 = tested on: SF-295
OVCAR-3 = tested on: OVCAR-3

C[C@H](CCC(=O)O)[C@H]1CC[C@H]2[C@@H]3[C@@H](O)C[C@@H]4C[C@H](O)CC[C@]4(C)[C@H]3CC[C@]12C [URSODIOL]
GI50 (RPMI-8226): 97.9 µM (inactive) | GI50 (CAKI-1): > 100 µM (inactive) | GI50 (ACHN): > 100 µM (inactive) | GI50 (A549): > 100 µM (inactive) | GI50 (BT-549): > 100 µM (inactive) | GI50 (HL-60): > 100 µM (inactive) | GI50 (NCI-H522): > 100 µM (inactive) | GI50 (CCRF-CEM): > 100 µM (inactive) | GI50 (NCI-H23): > 100 µM (inactive) | GI50 (UO-31): 70 µM (inactive) | GI50 (DU-145): > 100 µM (inactive) | GI50 (LOX IMVI): > 100 µM (inactive) | GI50 (786-0): > 100 µM (inactive) | GI50 (SN12C): > 100 µM (inactive) | GI50 (MCF7): > 100 µM (inactive) | GI50 (UACC-257): > 100 µM (inactive) | GI50 (HCC 2998): > 100 µM (inactive) | GI50 (SNB-75): 99.1 µM (inactive) | GI50 (Malme-3M): > 100 µM (inactive) | GI50 (HCT-116): > 100 µM (inactive) | GI50 (HOP-62): > 100 µM (inactive) | GI50 (NCI/ADR-RES): > 100 µM (inactive) | GI50 (MDA-MB-435): > 100 µM (inactive) | GI50 (KM12): > 100 µM (inactive) | GI50 (MDA-MB-231): > 100 µM (inactive) | GI50 (IGROV-1): > 100 µM (inactive) | GI50 (SR): 25.1 µM (inactive) | GI50 (HCT-15): > 100 µM | GI50 (OVCAR-8): > 100 µM (inactive) | GI50 (T47D): > 100 µM (inactive) | GI50 (COLO 205): > 100 µM (inactive) | GI50 (NCI-H226): > 100 µM (inactive) | GI50 (SK-MEL-28): > 100 µM (inactive) | GI50 (OVCAR-4): > 100 µM (inactive) | GI50 (MOLT-4): 47.4 µM (inactive) | GI50 (K562): 72.8 µM (inactive) | GI50 (SK-MEL-2): > 100 µM (inactive) | GI50 (EKVX): > 100 µM (inactive) | GI50 (UACC-62): > 100 µM (inactive) | GI50 (SF-268): > 100 µM (inactive) | GI50 (SW-620): > 100 µM (inactive) | GI50 (HOP-92): > 100 µM (inactive) | GI50 (A498): > 100 µM (inactive) | GI50 (SNB-19): > 100 µM (inactive) | GI50 (HT-29): > 100 µM (inactive) | GI50 (NCI-H460): > 100 µM (inactive) | GI50 (OVCAR-5): > 100 µM (inactive) | GI50 (TK-10): > 100 µM (inactive) | GI50 (SF-539): > 100 µM (inactive) | GI50 (PC-3): > 100 µM (inactive) | GI50 (MDA-N): > 100 µM (inactive) | GI50 (M14): > 100 µM (inactive) | GI50 (U-251): > 100 µM (inactive) | GI50 (RXF 393): > 100 µM (inactive)

Cc1cc(C2CC(O)C(CO)O2)c(F)cc1F (centres undefined)
GI50 (CAKI-1): > 100 µM (inactive) | GI50 (ACHN): > 100 µM (inactive) | GI50 (A549): > 100 µM (inactive) | GI50 (BT-549): > 100 µM (inactive) | GI50 (HL-60): 91.6 µM (inactive) | GI50 (NCI-H522): > 100 µM (inactive) | GI50 (CCRF-CEM): > 100 µM (inactive) | GI50 (NCI-H23): > 100 µM (inactive) | GI50 (UO-31): > 100 µM (inactive) | GI50 (DU-145): > 100 µM (inactive) | GI50 (LOX IMVI): > 100 µM (inactive) | GI50 (SK-OV-3): > 100 µM (inactive) | GI50 (786-0): > 100 µM (inactive) | GI50 (SN12C): > 100 µM (inactive) | GI50 (MCF7): > 100 µM (inactive) | GI50 (UACC-257): > 100 µM (inactive) | GI50 (HCC 2998): > 100 µM (inactive) | GI50 (SNB-75): > 100 µM (inactive) | GI50 (Malme-3M): > 100 µM (inactive) | GI50 (HCT-116): > 100 µM (inactive) | GI50 (HOP-62): > 100 µM (inactive) | GI50 (NCI/ADR-RES): > 100 µM (inactive) | GI50 (MDA-MB-435): > 100 µM (inactive) | GI50 (KM12): > 100 µM (inactive) | GI50 (MDA-MB-231): > 100 µM (inactive) | GI50 (IGROV-1): > 100 µM (inactive) | GI50 (SR): > 100 µM (inactive) | GI50 (HCT-15): > 100 µM | GI50 (OVCAR-8): > 100 µM (inactive) | GI50 (T47D): > 100 µM (inactive) | GI50 (COLO 205): > 100 µM (inactive) | GI50 (NCI-H226): > 100 µM (inactive) | GI50 (SK-MEL-28): > 100 µM (inactive) | GI50 (OVCAR-4): > 100 µM (inactive) | GI50 (MOLT-4): > 100 µM (inactive) | GI50 (K562): > 100 µM (inactive) | GI50 (EKVX): > 100 µM (inactive) | GI50 (UACC-62): > 100 µM (inactive) | GI50 (SF-268): > 100 µM (inactive) | GI50 (SW-620): > 100 µM (inactive) | GI50 (HOP-92): > 100 µM (inactive) | GI50 (A498): > 100 µM (inactive) | GI50 (SF-295): > 100 µM (inactive) | GI50 (SNB-19): > 100 µM (inactive) | GI50 (HT-29): > 100 µM (inactive) | GI50 (NCI-H460): > 100 µM (inactive) | GI50 (OVCAR-5): > 100 µM (inactive) | GI50 (TK-10): > 100 µM (inactive) | GI50 (SF-539): > 100 µM (inactive) | GI50 (PC-3): > 100 µM (inactive) | GI50 (MDA-N): > 100 µM (inactive) | GI50 (M14): > 100 µM (inactive) | GI50 (U-251): > 100 µM (inactive) | GI50 (OVCAR-3): > 100 µM (inactive) | GI50 (RXF 393): > 100 µM (inactive)
